Measurements reported in patent US20230026232A1, “AHR INHIBITORS AND USES THEREOF” (Ikena Oncology, Inc., priority 2019, published 2023).
“Also recorded” adds a separate entry of the source.

What was measured:
[1] = Glass transition temperature (Tg) by MDSC; type: physicochemical; conditions: for Tg: bulk API, melt-quench amorphous, MDSC
Method: DSC was performed using a TA Instruments Discovery DSC2500 differential scanning calorimeter equipped with a TA instruments Refrigerated Cooling System 90 operating in either modulated or ramp mode. DSC was used to measure thermodynamic events and characteristics of Compound A free base and hemi-maleate salt, and subsequent SDIs. Events observed include the glass transition temperature (Tg), cold crystallization (Tc), defined as a crystallization event at a temperature lower than the melt temperature, and melting temperature (Tm). SDI samples were placed in non-hermetic aluminum pans and heated at a constant rate of 2.0° C./min over a 5-200° C. temperature range. The system was purged by nitrogen flow at 50 mL/min to ensure inert atmosphere through the course of measurement. […] Amorphous API was successfully created by rapidly quenching liquefied Compound A using Refrigerated Cooling System 90. The resulting amorphous API was analyzed by modulated DSC. A summary of DSC analysis parameters can be found in Tables 2 and 3.
Thermal properties of both Compound A forms were measured by both DSC and MDSC. […] The Tg of each was measured via a melt-quench technique, heating past its melting temperature and rapidly cooling to trap the molten material in an amorphous state. […] (FIG. 2/Table 11).
Samples were stored at the elevated humidity conditions for 18 hours at ambient temperature before sealing in hermetic pans and analysis by MDSC. Results are reported as a function of relative humidity (RH) in FIG. 13 and Table 20. All lead SDI formulations (HPMCAS-H and PVP VA64 dispersions) have a Tg that is low at elevated humidity conditions and is predicted to require conservative packaging (i.e., desiccant, foil-foil seal, or etc.) to obtain sufficient long-term physical stability of the SDI. To ensure long-term physical stability in open packaging at all ICH conditions, it is desirable that the SDI have a Tg higher than 50° C. at 75% RH, and ideally higher than 60° C. at 75% RH.

AHR [2] = experiment: Pharmacodynamics: VAG539-induced CYP1A1 mRNA in mouse liver and spleen; type: in vivo, C57BL/6 mice; conditions: 25 mg/kg Compound A oral
Method: The pharmacodynamic effect of Compound A on the inhibition of AHR-dependent gene expression in liver and spleen was examined in C57BL/6 mice.
Mice were sacrificed at 4 and 10 hours post-dose and RNA was extracted and gene expression of CYP1A1 and the housekeeping gene mouse glyceraldehyde 3-phosphate dehydrogenase were quantified. CYP1A1 mRNA expression levels for each dose group for liver and spleen tissues were normalized to the control group.

[3] = Nonclinical safety studies incl. 28-day GLP study in rat; type: in vivo; conditions: rats
Source text: The nonclinical safety of Compound A has been evaluated in a series of pharmacological, single-dose and repeated-dose toxicological studies in rodent and non-rodent species including 28-day Good Laboratory Practice (GLP) studies in rat and monkeys. […] All changes were resolved or resolving after 2 weeks of dosing cessation, except for the testicular changes in rats. The nonclinical safety assessment from these studies supports clinical evaluation of Compound A in humans. The initial planned dose of Compound A for this study is 200 mg once daily (QD), based on evaluation of the Compound A nonclinical safety data.

AHR [4] = target: T1, AHR (Homo sapiens, UniProt P35869); experiment: CYP1A1 expression in CD3/CD28 activated human T cells (qRT-PCR); type: cell-based; set-up: endogenous in cells; conditions: 24 hours
T1 sequence (P35869 11-848): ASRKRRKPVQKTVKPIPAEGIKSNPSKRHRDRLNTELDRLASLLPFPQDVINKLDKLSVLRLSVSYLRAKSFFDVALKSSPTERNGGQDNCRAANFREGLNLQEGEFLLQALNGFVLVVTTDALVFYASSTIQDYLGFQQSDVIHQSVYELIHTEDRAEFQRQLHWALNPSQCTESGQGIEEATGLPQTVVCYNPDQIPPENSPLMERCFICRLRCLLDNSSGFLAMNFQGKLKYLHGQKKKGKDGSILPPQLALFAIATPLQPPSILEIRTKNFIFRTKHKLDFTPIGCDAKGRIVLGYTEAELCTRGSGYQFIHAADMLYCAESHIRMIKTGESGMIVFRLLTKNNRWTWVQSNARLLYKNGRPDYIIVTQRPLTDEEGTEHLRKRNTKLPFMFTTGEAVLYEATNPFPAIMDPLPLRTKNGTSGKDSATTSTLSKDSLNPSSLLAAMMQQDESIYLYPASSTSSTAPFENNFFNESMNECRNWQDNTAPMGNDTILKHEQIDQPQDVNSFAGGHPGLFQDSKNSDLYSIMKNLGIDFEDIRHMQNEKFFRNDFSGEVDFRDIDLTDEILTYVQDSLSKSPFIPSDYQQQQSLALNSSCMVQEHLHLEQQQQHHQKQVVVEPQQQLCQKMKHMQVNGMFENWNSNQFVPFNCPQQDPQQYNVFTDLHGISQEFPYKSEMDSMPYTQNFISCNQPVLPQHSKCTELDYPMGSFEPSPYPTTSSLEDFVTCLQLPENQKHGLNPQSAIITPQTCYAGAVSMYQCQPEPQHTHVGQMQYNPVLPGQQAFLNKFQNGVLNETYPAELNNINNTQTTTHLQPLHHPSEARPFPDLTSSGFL
Method: AHR plays a key role in immune cells and its' inhibition is proposed to reverse immune suppression and activate T cells. The ability of Compound A to inhibit AHR-dependent CYP1A1 expression and cytokine production was assessed in primary human T cells. AHR directly regulates the expression of the immune suppressive cytokine IL-22. Human T cells isolated from healthy donor PBMCs were activated with CD3/CD28 tetramer and incubated for 24 hours with Compound A. Cell pellets were processed for RNA isolation and CYP1A1 analysis by quantitative reverse-transcriptase polymerase chain reaction. For the cytokine analysis assay, CD3/CD28 activated T cells were treated with Compound A, and culture supernatants were collected after 48 hours for analysis of IL-22 levels using Meso Scale Discovery V-plex IL-22 plates. Compound A inhibited AHR-dependent gene expression in activated human T cells by decreasing expression of CYP1A1 in a concentration-dependent manner.

AHR [5] = target: T1, AHR; experiment: HepG2 DRE-Luc reporter assay, VAF347-stimulated luciferase expression; type: cell-based; set-up: endogenous in cells; host or cells: HepG2 DRE-Luc reporter cell line; conditions: 80 nM VAF347, n=2
Method: In vitro experiments were conducted to examine the inhibitory activity of Compound A for AHR-mediated transcriptional activation in the HepG2 DRE-Luc reporter cell line. This human hepatoma cell line stably expresses a luciferase reporter gene under control of AHR-responsive DRE enhancer elements (Han, 2004). HepG2 DRE-Luc reporter cells were treated with 80 nM VAF347 to activate AHR.
The inhibitory activity of the human Compound A metabolites, Compound B and Compound C was also determined in the HepG2 DRE-Luc cell line. Reporter cells were stimulated with 80 nM VAF347 and each metabolite at multiple concentrations.

**Q.** What does the source list for `CC(C)c1cnn2c(N[C@@H]3CCc4[nH]c5ccccc5c4C3)nc(-c3cncc(F)c3)nc12` [Compound A, (R)—N-(2-(5-fluoropyridin-3-yl)-8-isopropylpyrazolo[1,5-a][1,3,5]triazin-4-yl)-2,3,4,9-tetrahydro-1H-carbazol-3-amine]?
**A.** Tm/Tg ratio ([1]; K/K, indicator of physical stability): 1.30; Tg ([1]; listed as Compound A Free Base): 95 °C; Tg ([1]; listed as free base): 95 °C; inhibition of CYP1A1 mRNA increases induced by VAG539 in the liver (AHR [2]; with 30 mg/kg VAG539): Complete inhibition; inhibition of CYP1A1 mRNA induction in the spleen (AHR [2]; with 30 mg/kg VAG539, at 4 hours): complete inhibition; noteworthy findings in nonclinical safety studies [3]: non-glandular stomach ulceration and edema; also recorded: seminiferous tubule degeneration and debris in the epididymis lumen; IC50 (AHR [4]): 63 nM; IC50 (AHR [5]): 91 nM
